Measured values as given in patent US12559471B2, “1,5-dihydro-2,4-benzodiazepine-3-one derivative and application thereof” (JIANGSU NHWA PHARMACEUTICAL CO., LTD, priority 2020, dated 2026).

Key:
[1] = molecular target: 5-HT2C receptor (Rattus norvegicus (Rat), UniProt P08909); settings: read-out: 5-HT2C (Ki value); rat cortex membrane, 3H-Mesulergine
Procedure: 2) Preparation of 5-HT2C Membrane
The rat cortex was taken out of a refrigerator at −80° C. and thawed spontaneously. The solution A was added, and the mixture was homogenized for 3-4 s at 4th gear for a total of 4 times and centrifuged at 50000 g for 25 min at 4° C. The supernatant was discarded, and the solution A was added into the precipitate. The mixture was mixed well using a vortex mixer and centrifuged at 50000 g for 25 min at 4° C. (repeated twice). The supernatant was discarded after the centrifugation, and the precipitate was stored at −80° C. for later use.
2) Competitive 5-HT2C Receptor Binding Assay
Step 1: the prepared membrane was suspended in the homogenate B to obtain a 210 mg/mL membrane suspension for later use.
Step 2: 100 μL of the membrane suspension was added into each reaction tube.
Step 3: 100 μL of the solution B was added into a total binding tube (TB), 100 μL of Ketanserin (final concentration: 1.0×10^−5 M) was added into a non-specific binding tube (NB), and 100 μL of test compound was added into each compound binding tube (CB).
Step 4: 10 μL of radioligand ^3H-Mesulergine was added into each reaction tube to reach a final concentration of 3 nM.
Step 5: each reaction tube was incubated at 37° C. for 25 min. After the reaction was completed, the binding ligands were rapidly filtered under reduced pressure, wherein the Whatman test paper GF/C was washed with 0.5% PEI solution 1 h in advance. The filter membrane was fully washed with cold Tris buffer solution, taken out and put into a 4 mL scintillation disc, which was then added with 1 mL toluene scintillation solution and shaken for mixing well.
Step 6: the scintillation disc was put into a liquid scintillation counter for counting.

[2] = tested on: MPTP+MK-801-induced Parkinson's disease mouse model; test: MPTP+MK-801-induced Parkinson's disease mouse model (anti-PDP efficacy model); type: in vivo; settings: ip, mice, intraperitoneal, read-out: PDP efficacy (high activity) ED50
Procedure: 1.1 Effect on MPTP+MK-801-induced Parkinson's disease mouse model (anti-PDP efficacy model)
Animals were injected with different doses of MPTP(1-methyl-4-phenyl-1,2,3,6-tetrahydropyridine) intraperitoneally every morning for 5 consecutive days. […] Then, after an interval of 0.25 h, the mice were placed into an autonomous activity test box (a black polyethylene box with the specification of 29 cm×29 cm×30 cm) for video recording for 20 min. Video analysis was performed after the video recording to evaluate the activity of the mice.

[3] = tested on: C57BL/6j mice; test: Investigation of sedation side effects (autonomic activity, movement distance); type: in vivo; settings: sedation ED50 / PDP efficacy ED50
Procedure: (§1) 1.3 Investigation of Sedation Side Effects (Anti-Sedation Model)
(§2) According to different doses of each group, solutions at different concentrations were separately formulated for intraperitoneal injection, with the final administration volume of 10 mL/kg.
(§3) The movement at 0-20 min was recorded on video, and the movement distance in 20 min was analyzed by Top Scan 3.00 software. The inhibition rate of each group relative to the blank group after the administration were calculated, and the sedation effects of the compounds were comprehensively evaluated in combination with a statistical conclusion.

[4] = as above; type: in vivo, mice; settings: mouse, in vivo, ip; C57BL/6j mice, intraperitoneal, 45 min after administration
Procedure: as §1, §2, §3

[5] = tested on: DOI-induced head shaking behavior of mice; test: DOI-induced head shaking (head thrust) test in mice; type: in vivo; settings: Mus musculus, intragastric, DOI 1 mg/kg i.p., 0-20 min, read-out: ED50 for inhibiting the DOI-induced head shaking behavior
Procedure: 1. Head Thrust Test in Mice
Mice were stratified according to body weight and then randomly divided into a model control group, a blank control group and drug administration groups. 1 h after the intragastric administration of a vehicle or a drug, the animals were placed in a beaker (with the diameter of 13 cm and the height of 19 cm) paved with fresh padding, and were injected with a modeling drug DOI ((±)-1-(2,5-dimethoxy-4-iodophenyl)-2-aminopropane hydrochloride or (±)-2,5-dimethoxy-4-iodoamphetamine hydrochloride) intraperitoneally at a dose of 1 mg/kg. The head shaking times of the mice during the 0-20 min after the intraperitoneal injection of DOI were recorded. The head shaking behavior is defined as a rapid rotational twitching or wet dog-like shaking of the mouse head, which is distinguished from normal grooming or exploring behavior.

[6] = tested on: MPTP+APO-induced climbing behavior in male mice; test: MPTP+APO-induced climbing behavior in male mice (DA motor deterioration model); type: in vivo; settings: observation in words
Procedure: 1.2 Effect on MPTP+APO-induced climbing behavior in male mice (DA motor deterioration model) Animals were injected with different doses of MPTP intraperitoneally every morning for 5 consecutive days. […] After the subcutaneous injection, animals were immediately placed into a climbing cage (self-made, a cylindrical cage with the diameter of 13 cm and the height of 15 cm, made of a stainless steel wire mesh with the diameter of about 0.1 cm, the bottom of which is a semitransparent polyethylene plate, and the cage cover of which is a stainless steel cage cover), and the behaviors of animals at minutes 10-11, 20-21 and 30-31 after the APO injection was observed and scored.
Scoring criteria: four feet on the floor scored 0; two forepaws on the cage scored 1; and four feet on the cage scored 2.

[7] = molecular target: 5-HT2A receptor (Homo sapiens (Human), UniProt P28223); test: Competitive 5-HT2A receptor binding assay (3H-Ketanserin, CHO-5-HT2A membrane)
Procedure: 1) Preparation of CHO-5-HT2A Receptor Membrane
The precipitate was collected, and the supernatant was discarded. The solution B was added into the precipitate. […] The supernatant was carefully discarded, and the solution B was added into the precipitate again. […] The precipitate obtained was stored at −80° C.
1) Competitive 5-HT2A Receptor Binding Assay
Step 2: 100 μL of the membrane preparation was added into each reaction tube.
After the filtration, the filter membrane was dried at 60° C. and added into a scintillation disc attached with a bottom membrane, which was then added with 40 μL of scintillation liquid, sealed with a top membrane, and left to stand.

[8] = molecular target: hERG potassium channel (Homo sapiens (Human), UniProt Q12809); test: In vitro hERG assay, whole-cell patch clamp in HEK-293 cells; type: cell-based; settings: HEK-293 cells stably expressing hERG, room temperature
Procedure: b. […] The working solutions of the test compounds were ultrasonically treated for 20 min.
The cell suspension was gently pipetted to separate the aggregated cells.
Under an inverted microscope, recording electrodes were controlled by a glass electrode micromanipulator (micromanipulation) to contact with the cell. […] After forming the GΩ seal, a rapid capacitance compensation was given.
Negative control and test compounds flowed through the recording chamber in an ascending order of concentration by gravity perfusion to quickly act on the cells. During the recording, the extracellular fluid was continuously circulated by a vacuum pump. […] Each concentration was allowed to act for 5 min or until the current was stabilized. All experiments were performed at room temperature.
[formula] Basic statistics were calculated for each concentration, including mean, standard deviation (SD), standard error (SE), and replicates (n). The dose-dependent curve was fitted with the following equation and the half maximal inhibitory concentration (IC50) of the test compounds was calculated:
Curve fitting and calculation of IC50 were performed by GraphPad Prism 5.0 software. 5. Experimental Results

Chain of 5-HT2A receptor (P28223 whole entry): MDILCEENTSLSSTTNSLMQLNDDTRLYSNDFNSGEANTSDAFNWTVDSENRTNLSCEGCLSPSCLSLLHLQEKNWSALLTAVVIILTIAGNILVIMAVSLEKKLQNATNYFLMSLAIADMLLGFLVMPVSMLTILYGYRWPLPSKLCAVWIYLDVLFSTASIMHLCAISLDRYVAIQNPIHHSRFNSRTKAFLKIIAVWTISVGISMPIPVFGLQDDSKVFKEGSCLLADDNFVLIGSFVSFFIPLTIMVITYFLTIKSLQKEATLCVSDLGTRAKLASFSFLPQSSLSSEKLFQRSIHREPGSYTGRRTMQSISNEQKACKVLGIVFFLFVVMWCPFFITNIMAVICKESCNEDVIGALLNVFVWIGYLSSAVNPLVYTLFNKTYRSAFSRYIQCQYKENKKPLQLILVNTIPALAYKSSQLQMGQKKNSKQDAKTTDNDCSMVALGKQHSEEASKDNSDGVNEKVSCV
Chain of 5-HT2C receptor (P08909 33-460): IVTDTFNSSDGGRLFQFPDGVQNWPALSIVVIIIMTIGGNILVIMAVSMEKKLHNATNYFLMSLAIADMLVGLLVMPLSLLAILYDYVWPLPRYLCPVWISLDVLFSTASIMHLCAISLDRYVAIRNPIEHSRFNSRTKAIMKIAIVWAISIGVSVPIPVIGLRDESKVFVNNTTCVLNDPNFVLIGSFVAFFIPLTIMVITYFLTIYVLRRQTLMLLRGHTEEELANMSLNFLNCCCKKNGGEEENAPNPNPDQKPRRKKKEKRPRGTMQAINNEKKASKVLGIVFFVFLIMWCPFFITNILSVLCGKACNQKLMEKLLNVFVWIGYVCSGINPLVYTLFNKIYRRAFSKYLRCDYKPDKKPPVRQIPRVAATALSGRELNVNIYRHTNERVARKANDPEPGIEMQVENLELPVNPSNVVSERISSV
Chain of hERG potassium channel (Q12809 whole entry): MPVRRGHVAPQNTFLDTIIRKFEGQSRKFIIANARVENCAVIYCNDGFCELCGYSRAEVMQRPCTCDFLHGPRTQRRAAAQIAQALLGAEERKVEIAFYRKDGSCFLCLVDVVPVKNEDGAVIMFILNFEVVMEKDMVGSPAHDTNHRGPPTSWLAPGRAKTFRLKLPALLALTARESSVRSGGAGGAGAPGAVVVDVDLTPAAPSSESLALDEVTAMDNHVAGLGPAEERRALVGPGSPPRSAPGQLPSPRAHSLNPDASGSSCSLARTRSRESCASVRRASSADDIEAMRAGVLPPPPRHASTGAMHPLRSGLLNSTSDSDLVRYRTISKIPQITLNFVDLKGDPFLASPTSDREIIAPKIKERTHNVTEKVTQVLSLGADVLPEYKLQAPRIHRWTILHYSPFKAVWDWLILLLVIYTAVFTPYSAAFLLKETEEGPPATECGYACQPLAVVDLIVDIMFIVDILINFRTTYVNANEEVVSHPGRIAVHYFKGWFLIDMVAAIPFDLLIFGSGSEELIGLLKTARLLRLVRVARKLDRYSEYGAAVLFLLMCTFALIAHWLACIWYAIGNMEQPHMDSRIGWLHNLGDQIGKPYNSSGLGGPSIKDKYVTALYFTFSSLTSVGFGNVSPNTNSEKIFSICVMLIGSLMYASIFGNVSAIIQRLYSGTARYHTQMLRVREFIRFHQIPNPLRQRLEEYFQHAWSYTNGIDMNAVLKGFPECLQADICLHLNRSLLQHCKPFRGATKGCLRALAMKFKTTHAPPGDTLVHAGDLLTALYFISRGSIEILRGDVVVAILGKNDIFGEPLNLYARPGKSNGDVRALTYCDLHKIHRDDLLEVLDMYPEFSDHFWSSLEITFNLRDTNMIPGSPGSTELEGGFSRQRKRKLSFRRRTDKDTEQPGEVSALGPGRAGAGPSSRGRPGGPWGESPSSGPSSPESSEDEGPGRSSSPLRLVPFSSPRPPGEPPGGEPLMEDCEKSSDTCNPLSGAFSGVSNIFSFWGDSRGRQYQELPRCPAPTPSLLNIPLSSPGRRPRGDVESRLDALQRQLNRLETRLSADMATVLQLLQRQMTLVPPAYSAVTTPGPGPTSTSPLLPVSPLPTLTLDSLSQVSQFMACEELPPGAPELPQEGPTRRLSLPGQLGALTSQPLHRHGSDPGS

With `CC(C)COc1ccc(CN2Cc3cc(F)ccc3CN(C3CCN(C)CC3)C2=O)cc1` [NH-K-A19001, 7-fluoro-2-(1-methylpiperidin-4-yl)-4-[[4-(2-methylpropoxy)phenyl]methyl]-1,5-dihydro-2,4-benzo diazepine-3-one] the Ki [1] was 2.4 nM, the ED50 [2] was 0.33 mg/kg and the “Ratio of sedation ED50 to PDP efficacy ED50” value [3] was 11.33. The ED50 at 45 min [4] was 3.74 mg/kg, the ED50 [5] was 0.06 mg/kg and the “motor deterioration (DA mechanism of action)” value [6] was “no motor deterioration is observed”. For the same compound, the Ki ([7]; CHO-5-HT2A membrane, 3H-Ketanserin, read-out: 5-HT2A (Ki value)) was 0.028 nM, the 2C/2A ([7]; ratio of 5-HT2C Ki to 5-HT2A Ki) was 86.327 and the IC50 [8] was 260 nM.
